Data on one compound can be found in patent US20090136968A1, “Novel in vitro methods for studying receptors recognizing volatile compounds” (Chemcom S. A., priority 2005, published 2009).

SMILES strings stand for the structures.

The target of assay [1] is T1, mOR-I7 (Mus musculus, UniProt Q9QWU6).
T1 construct: expressed in transfected cells; host or cells: HEK 293T
T1 sequence (Q9QWU6 1-327): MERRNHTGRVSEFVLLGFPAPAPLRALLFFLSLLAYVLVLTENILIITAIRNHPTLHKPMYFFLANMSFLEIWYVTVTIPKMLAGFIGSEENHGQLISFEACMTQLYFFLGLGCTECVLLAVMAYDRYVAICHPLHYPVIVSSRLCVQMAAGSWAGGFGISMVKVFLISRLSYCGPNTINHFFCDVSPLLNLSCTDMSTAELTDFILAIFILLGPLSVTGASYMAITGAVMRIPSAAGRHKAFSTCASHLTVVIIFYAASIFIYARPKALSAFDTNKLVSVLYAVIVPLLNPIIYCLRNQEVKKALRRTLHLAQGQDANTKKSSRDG
The note with it: literature (references); cited from earlier work.

The target of assay [2] is T1, mOR-I7. The experiment in a line: CCBSA single cell calcium imaging (Fluo4) on HEK 293T overexpressing mOR-I7. Type of assay: cell-based. The note with it: bovine olfactory mucus incubated with 16 μl of 1M octanal, 16 hours 4° C.; 20 cells. How it is done: FIG. 3: Development of a novel olfactory functional assay. (A) Scheme of the novel assay according to the present invention, CCBSA. See details in the text. (B) Application of CCBSA on a microplate format fluorescent cell-based assay. Increasing volume of octanal were incubated in CCBSA, and applied on HEK 293T cell line overexpressing or not mOR-I7. Calcium flux was followed with fluo4 as calcium tracer. (C) Application of CCBSA on single cell calcium imaging assay. Octanal was incubated in CCBSA and applied on HEK 293T overexpressing mOR-I7. Upper panel depicts kinetics of calcium flux followed with fluo4 as calcium tracer. Octanal-incubated bovine olfactory mucus was applied at 50 s and ATP as positive control was applied at 310 s. Forty X objective was used for this experiment. Middle panel show kinetics of 20 individual cells taken off the field represented in the upper panel. Finally, a representation of the average of the 20 traces is given in the lower panel.
To further validate this assay, single cell calcium imaging assays following the same approach were performed (FIG. 3C). Bovine olfactory mucus was incubated in the presence of 16 μl of a 1M octanal solution for 16 hours at 4° C. […]
This novel assay allows thus an efficient solubilization of odorant and greatly improves the efficacy of the molecule. […] Such disproportion has never been detected in a conventional assay. […]

In assay [3] the test system is HEK 293T wt. The experiment in a line: CCBSA microplate calcium flux on HEK 293T wild type cells (specificity control). Type of assay: cell-based. As to the method: A solution of BP including SA, OBP and/or olfactory mucus (see concentration in the text) was incubated in the presence of odorant in a sealed flask for 16 hours at 4° C. (FIG. 3A). Such incubated-BP solution was then used as tested complex on olfactory receptor-expressing cells. Prior to incubation with such complex, cells were incubated for 1 hour with 4 μM Fluo4-AM (Molecular Probe) in the presence of 1 mM probenecid, and then rinsed twice with Fluo4-AM free HBSS buffer. After injection of odorant-BP complex on OR expressing cells, calcium flux was followed by measuring fluorescence at 520 nm ([…]) on FDSS, a plate reader from Hamamatsu Photonics K.K. (Japan) at 25° C.
For this novel assay, mOR-I7 activation was assessed by octanal. A constant volume of olfactory mucus was incubated in the presence of increasing amount of octanal ranging from 0 to 16 μl of a solution of 1M octanal. […] Calcium flux was followed with Fluo4 on FDSS, a plate reader from Hamamatsu Photonics K.K. (Japan).
However this fraction 4 contained two major proteins, bOBP and BSA. […] Calcium-flux was followed on a plate reader (Hamamatsu Photonics K.K., Japan) with fluo4 as fluorescent dye (FIG. 6 A to F). […] Such phenomenon is usually observed in such fluorescence assay when increasing ligand concentrations are injected.

For the compound `CCCCCCCC=O` [octanal], the “known activation of mOR-I7” value in assay [1] was “activated specifically”. In addition, the “activation of cells overexpressing mOR-I7 (single cell fluorescence kinetics)” value in assay [2] is reported as “activated”. For the same compound, the “cell response on wt cells” value in assay [3] (bovine olfactory mucus incubated with octanal) was “no cell response”. Also, the “fluorescence in HEK 293T wt” value in assay [3] (fraction 4 or BSA solution (5×10^−6 M) incubated with 1M octanal) is given as “no fluorescence appeared”.
